# Experiments:
# Format in all cases: cell-based, human
# [1] = tested on: LNCaP/AR(cs) cells; assay: Transcriptional reporter assay (probasin-luciferase); conditions: for Agonist Transcriptional Reporter Assay (% Max Activity): [Antagonists] = 50 μM; for Antagonist Transcriptional Reporter Assay (% Max Activity): [Antagonists] = 50 μM in presence of R1881
# Experimental: (§1) With the exception of the LNCaP/AR(cs)-Luc cells that contain an integrated androgen responsive reporter, cells were transiently transfected using Lipofectin® (Life Technologies) according to the manufacturer's protocol. […] Following transfection, the cells were incubated for 4 hours.
# (§2) Following 48 hour incubation the medium was removed and the cells were lysed in 40 μL of lysis buffer (25 mM Tris Phosphate, 2 mM CDTA, 10% Glycerol, 0.5% Triton X-100, 2 mM DTT).
# [2] = tested on: Class 1 resistant cell lines; assay: as above; conditions: for Agonist Transcriptional Reporter Assay (% Max Activity) / Antagonist Transcriptional Reporter Assay (% Max Activity): Class 1; for Agonist Transcriptional Reporter Assay (% Max Activity): [Antagonists] = 50 μM; for Antagonist Transcriptional Reporter Assay (% Max Activity): [Antagonists] = 50 μM in presence of R1881; for Antagonist activity in probasin-luciferase reporter, Class 1 resistant cells: decrease in luciferase activity relative to no treatment controls
# Experimental: as §1, §2
# [3] = tested on: LNCaP ARN-509r1 cells; assay: Endogenous gene transcriptional assay (real-time PCR of androgen responsive genes); conditions: 1 nM R1881 or 30 μM compound, vehicle=1.00
# Experimental: (§3) Total RNA was isolated using the Aurum™ total RNA isolation kit (BIO-RAD, Hercules, Calif.). RNA (1 μg) was reverse transcribed using the iScript cDNA synthesis kit (BIO-RAD, Hercules, Calif.) to produce cDNA. Real-time PCR was performed using the Applied Biosystems 7900HT instrument and SYBR Green PCR Master Mix (Applied Biosystems, Foster City, Calif.). PCR reactions were performed in 6 μL according to the manufacturer's protocol and a thermocycle protocol of 95° C. for 10 minutes followed by 40 cycles of 95° C. for 15 seconds and 58° C. for 1 minute. Androgen responsive gene (PSA, SLUG, TMPRSS2, STEAP4, FKBP5, ORM1, NOV, FASN, NKX3.1, AMIGO2, BDNF, CAMK2N1, HPGD, NCAPD3, PLD1) expression was normalized to GAPDH expression and expressed relative to vehicle treatment of the parental cell line.
# (§4) Gene expression was normalized to GAPDH as described above.
# [4] = tested on: LNCaP ARN-509r2 cells; assay: as above; conditions: 1 nM R1881 or 30 μM compound, vehicle=1.00
# Experimental: as §3, §4
smiles,measurement,setting,value
CNC(=O)c1ccc(N2C(=S)N(c3cnc(C#N)c(C(F)(F)F)c3)C(=O)C23CCC3)cc1F [ARN-509],Agonist Transcriptional Reporter Assay (% Max Activity),[1],+ (‘+’ = <5)
same,Antagonist Transcriptional Reporter Assay (% Max Activity),[1],+ (‘+’ = <5)
same,Agonist Transcriptional Reporter Assay (% Max Activity),[2],+ (‘+’ = <5)
same,Antagonist Transcriptional Reporter Assay (% Max Activity),[2],++ (‘++’ = >5)
same,"Antagonist activity in probasin-luciferase reporter, Class 1 resistant cells",[2],effective antagonists
same,AMIGO2 gene expression,[3],0.62
same,BDNF gene expression,[3],0.90
same,CAM2KN1 gene expression,[3],0.37
same,FASN gene expression,[3],1.04
same,FKBP5 gene expression,[3],2.58
same,HPGD gene expression,[3],2.36
same,NCAPD3 gene expression,[3],1.29
same,NKX3.1 gene expression,[3],6.54
same,NOV gene expression,[3],1.40
same,ORM1 gene expression,[3],15.89
same,PLD1 gene expression,[3],0.33
same,PSA gene expression,[3],32.67
same,SLUG gene expression,[3],4.66
same,STEAP4 gene expression,[3],3.03
same,TMPRSS2 gene expression,[3],10.20
same,AMIGO2 gene expression,[4],0.67
same,BDNF gene expression,[4],1.04
same,CAM2KN1 gene expression,[4],0.46
same,FASN gene expression,[4],0.98
same,FKBP5 gene expression,[4],8.00
same,HPGD gene expression,[4],1.49
same,NKX3.1 gene expression,[4],3.73
same,NOV gene expression,[4],1.39
same,ORM1 gene expression,[4],3.94
same,PLD1 gene expression,[4],0.81
same,PSA gene expression,[4],1.91
same,SLUG gene expression,[4],1.31
same,STEAP4 gene expression,[4],1.45
same,TMPRSS2 gene expression,[4],3.07
"CNC(=O)c1ccc(N2C(=S)N(c3ccc(C#N)c(C(F)(F)F)c3)C(=O)C2(C)C)cc1F [Enzalutamide, enzalutamide]",Agonist Transcriptional Reporter Assay (% Max Activity),[1],+ (‘+’ = <5)
same,Antagonist Transcriptional Reporter Assay (% Max Activity),[1],+ (‘+’ = <5)
same,Agonist Transcriptional Reporter Assay (% Max Activity),[2],+ (‘+’ = <5)
same,Antagonist Transcriptional Reporter Assay (% Max Activity),[2],+ (‘+’ = <5)
same,"Antagonist activity in probasin-luciferase reporter, Class 1 resistant cells",[2],effective antagonists
same,AMIGO2 gene expression,[3],0.99
same,CAM2KN1 gene expression,[3],0.59
same,FASN gene expression,[3],1.53
same,FKBP5 gene expression,[3],9.45
same,HPGD gene expression,[3],10.20
same,NCAPD3 gene expression,[3],3.12
same,NOV gene expression,[3],1.39
same,ORM1 gene expression,[3],205.07
same,PLD1 gene expression,[3],0.24
same,PSA gene expression,[3],57.68
same,SLUG gene expression,[3],42.52
same,STEAP4 gene expression,[3],32.22
same,TMPRSS2 gene expression,[3],23.75
same,AMIGO2 gene expression,[4],0.63
same,BDNF gene expression,[4],0.77
same,CAM2KN1 gene expression,[4],0.38
same,FASN gene expression,[4],0.93
same,FKBP5 gene expression,[4],3.41
same,HPGD gene expression,[4],4.56
same,NCAPD3 gene expression,[4],1.35
same,NKX3.1 gene expression,[4],6.28
same,NOV gene expression,[4],0.71
same,ORM1 gene expression,[4],23.75
same,PLD1 gene expression,[4],0.29
same,PSA gene expression,[4],2.48
same,SLUG gene expression,[4],9.58
same,TMPRSS2 gene expression,[4],4.86

# From patent US9617602B2, “Methods and compositions for determining resistance to androgen receptor therapy” (Aragon Pharmaceuticals, Inc., priority 2012, dated 2017)
